Assay results taken from US20260258081A1, “PEPTIDE HAVING HAIR GROWTH PROMOTING ACTIVITY, AND USE THEREOF” (CAREGEN CO., LTD., priority 2019, published 2026).

Key:
Assay type in all cases: cell-based
[1] = system: human hair follicle germinal matrix cells; assay: PCR expression of MSX2 (activity of germinal matrix cells); conditions: peptide 0.5 uM, 5 uM or 50 uM, 1 day, serum-free medium, FIG. 6
Experimental: (§1) The promoting effect of the peptide consisting of the amino acid sequence of SEQ ID NO: 1 on the activity of germinal matrix cells was to be confirmed. In detail, human hair follicle dermal papilla cells were seeded in a 96-well plate at a density of 4×10^5 cells/well, and cultured for 16 hours. The culture medium was replaced with a serum-free medium, and the peptide was added thereto at a concentration of 0.5 uM, 5 uM, or 50 uM, and the cells were cultured for 1 day. Here, as a positive control group, 5 uM of EGF was treated. After the cells were harvested, RNA was extracted therefrom and used for synthesis of cNDA by using a cDNA synthesis kit and PCR pre-mix.

[2] = system: human dermal papilla cells; assay: PCR expression of DKK-1 under DHT stimulation; conditions: DHT 10 ug/ml as stimulator, peptide 0.5 uM, 5 uM or 50 uM, 1 day, serum-free medium, FIG. 5
Experimental: The inhibitory effect of the peptide consisting of the amino acid sequence of SEQ ID NO: 1 on the expression of DKK-1, which is a hair loss-related factor, in hair follicle cells was to be confirmed. In detail, human dermal papilla cells were seeded in a 96-well plate at a density of 4×10^5 cells/well, and cultured for 16 hours. After the culture medium was replaced with a serum-free medium, dihydrotestosterone (DHT) as a stimulator was added thereto at a concentration of 10 ug/ml while peptide was added thereto at a concentration of 0.5 uM, 5 uM, or 50 uM. Then, the cells were cultured for 1 day. As a positive control, 50 uM of Finasteride which is a drug inhibiting male hormones was treated. Here, DHT is known as a hair loss hormone that increases the expression of DKK-1, which is a hair loss-inducible factor, by activating an androgen receptor. After the cells were harvested, RNA was extracted therefrom and used for synthesis of cNDA by using a cDNA synthesis kit and PCR pre-mix.

[3] = system: human dermal papilla cells; assay: PCR expression of Lef-1, Cyclin D1 and c-Myc (activity of dermal papilla cells); conditions: peptide 0.5 uM, 5 uM or 50 uM, 1 day, serum-free medium, FIG. 2
Experimental: as §1, with “hair follicle” for “germinal matrix”, “human” for “human hair follicle”, “Minoxidil” for “EGF”, “cDNA” for “cNDA”, “pre-mix (Intron, Korea).” for “pre-mix.”

[4] = system: human dermal papilla cells; assay: PCR expression of growth factors VEGF, bFGF, KGF and HGF; conditions: peptide 0.5 uM, 5 uM or 50 uM, 1 day, serum-free medium, FIG. 3
Experimental: as §1, with “a growth factor of hair follicle” for “germinal matrix”, “human” for “human hair follicle”, “Minoxidil” for “EGF”

[5] = system: human hair follicle outer root sheath cells; assay: PCR expression of HA3-II, Keratin 5, Keratin 14 and Keratin 19 (activity of outer root sheath cells); conditions: peptide 0.5 uM, 5 uM or 50 uM, 1 day, serum-free medium, FIG. 7
Experimental: as §1, with “hair follicle outer root sheath” for “germinal matrix”, “outer root sheath” for “dermal papilla”, “pre-mix. Then, PCR was performed by using the primer of GAPDH shown in Table 2 and primers of HA3-II, Keratin 5, Keratin 14, and Keratin […] shown in Table 6.” for “pre-mix.”

[6] = system: human dermal papilla cells; assay: Western blotting of apoptosis-related proteins Bax, Cleaved PARP-1, Cleaved Caspase-3, Bcl2; conditions: peptide 0.5 uM, 5 uM or 50 uM, 1 day, serum-free medium; western blot; FIG. 4
Experimental: The inhibitory effect of the peptide consisting of the amino acid sequence of SEQ ID NO: 1 on the control of expression of apoptosis-related proteins of hair follicle cells was to be confirmed. In detail, human dermal papilla cells were seeded in a 96-well plate at a density of 4×10^5 cells/well, and cultured for 16 hours. The culture medium was replaced with a serum-free medium, and the peptide was added thereto at a concentration of 0.5 uM, 5 uM, or 50 uM, and the cells were cultured for 1 day. Here, as a positive control group, 5 uM of Minoxidil was treated. Cell lysates were prepared by harvesting the cell, and then, western blotting was performed with respect to Bax, Cleaved PARP-1, Cleaved Caspase-3, or Bcl2 by using Bax antibodies, Cleaved PARP-1 antibodies, Cleaved Caspase-3 antibodies, or Bcl2 antibodies (Santacruz biotechnology, USA), respectively.

[7] = system: human hair follicle dermal papilla cells; assay: β-catenin movement from cytoplasm to nucleus, western blotting of nuclear extract; conditions: peptide 0.5 uM, 5 uM or 50 uM, 1 day, serum-free medium; western blot; FIG. 1
Experimental: The promoting effect of the peptide consisting of the amino acid sequence of SEQ ID NO: 1 on the proliferation of hair follicle cells was to be confirmed. In detail, human hair follicle dermal papilla cells were seeded in a 96-well plate at a density of 4×10^5 cells/well, and cultured for 16 hours. The culture medium was replaced with a serum-free medium, and the peptide was added thereto at a concentration of 0.5 uM, 5 uM, or 50 uM, and the cells were cultured for 1 day. Here, as a positive control group, 5 uM of Minoxidil which is used as a hair loss treatment was treated. The cells were harvested and nuclei thereof were isolated by using a nuclear protein extraction kit (Merck, USA). Then, western blotting was performed with respect to β-catenin which is a factor related to proliferation of the dermal papilla cells by using β-catenin antibodies (Santacruz biotechnology, USA).

TKVFPQD [SEQ ID NO: 1]
expression of MSX2 [1]: increase
expression pathway of DKK-1 [2]: inhibit
expression of Cyclin D1 [3]: increased
expression of Lef-1 [3]: increased
expression of c-Myc [3]: increased
expression of HGF [4]: increased
expression of KGF [4]: increased
expression of VEGF [4]: increased
expression of bFGF [4]: increased
expression of HA3-II [5]: increase
expression of Keratin 5 [5]: increase
expression of Keratin 14 [5]: increase
expression of Keratin 19 [5]: increase
expression of Bax [6]: decreased
expression of Bcl2 (anti-apoptosis-related protein) [6]: increased
expression of Cleaved Caspase-3 [6]: decreased
expression of Cleaved PARP-1 [6]: decreased
movement of β-catenin from the cytoplasm to the nucleus [7]: increased
